Laboratory results reported in patent US20110268711A1, “PANCREATIC STELLATE CELL SPECIFIC PROMOTER AND USES THEREOF” (AGENCY FOR SCIENCE, TECHNOLOGY AND RESEARCH, priority 2007, published 2011).
“Also recorded” adds a separate entry of the source. Like-named read-outs stand apart in the source and are kept apart here.

Tested on: 2.2-kb hGFAP promoter (GFAP-LacZ transgene) in SAM-K cells
Format: cell-based
Conditions: for decrease of relative β-Gal activity / decrease in β-Gal activity: vs 0.2% DMSO control; for decrease in β-Gal activity: kinase inhibitor 10 μM; for induction of GFAP-lacZ transgene expression (β-Gal activity) by exogenous cytokines: TGF-β 1 and 10 ng/ml, PDGF-BB 10 ng/ml, TNF-α 10 ng/ml, 24, 32, 48 and 60 hours after treatment
Experimental: Transfection and isolation of stable cell lines: The 2.2-kb hGFAP-LacZ (Maubach, G., et al., World J Gastroenterol, 2006, 12(5): 723-30) or the 2.2-kb hGFAP-DsRed plasmid was used to transfect PSC lines, using LIPOFECTAMINE™ 2000 (Invitrogen, CA, USA) according to the manufacturer's instructions. DsRed expression was identified under fluorescence microscope (Leica, Wetzlar, Germany). To isolate the stable clones expressing GFAPLacZ in SAM-K cell line, 24 hours after transfection, the cell culture medium was changed into medium containing Zeocin (500 μg/ml, Invitrogen, CA, USA). The single clones were isolated by dilution in the 96 well plates, the positive β-galactosidase (β-Gal) clones were identified by β-Gal staining kit from Invitrogen (CA, USA). Stable clones were maintained in culture medium containing 250 μg/ml Zeocin.
Treatment of PSCs with cell signaling inhibitors: Before treatment with different factors, SAM-K cells stably expressing the GFAP-LacZ at 70-80% confluence were starved in 0.5% FBS overnight, TGF-β (1 ng/ml, 10 ng/ml), PDBF-BB (10 ng/ml), and TNF-α (10 ng/ml) treatments were carried out at different time points, PBS buffer (0.2%) treatment served as control. Kinase inhibitors (10 μM), including LY 294002, U0126, SP600125, SB 203580, retinol and its metabolites, including retinol, 9-RA, ATRA, were applied to the cell culture medium at both 2 μM and 5 μM concentrations. Treatment in 0.2% DMSO served as control. The transgenic β-Gal activity was quantified at various times following treatment.
To obtain cryostat sections, the pancreas was removed from both GFAP-LacZ transgenic mouse and wild type mouse of the same FVB/N genetic background, and were fixed in 4% PFA fixative for 30 minutes. The fixed tissues were infiltrated overnight with 30% sucrose. Small pieces of tissue were mounted in OCT medium, and 14-μm sections were collected onto POLYSINE™ slides (Menzel GmbH & Co KG, Braunschweig, Germany). The expression of lacZ gene was detected using a staining kit from Invitrogen. The sections were stained with X-gal substrate overnight at room temperature, and subsequently counter-stained with eosin, prior to being mounted on slides with HYDROMOUNT™ (National diagnostics, Georgia, USA). To quantify the GFAP-LacZ expression, the β-Gal activity in the total cell extracts was measured with an enzymatic assay kit (Promega, WI, USA).
Statistical analysis: All quantitative results were presented as mean±SE; data were analyzed with Student t-test.

Molecule: CC1=C(/C=C/C(C)=C\C=C\C(C)=C\C(=O)O)C(C)(C)CCC1 [9-RA, 9-cis retinoic acid]
- decrease of relative β-Gal activity (2 μM, 24 hours after treatment): about 44%
- decrease of relative β-Gal activity (2 μM, 48 hours after treatment): 37%
- decrease of relative β-Gal activity (5 μM, 24 hours after treatment): about 48%
- decrease of relative β-Gal activity (5 μM, 48 hours after treatment): about 46%

Molecule: CC1=C(/C=C/C(C)=C/C=C/C(C)=C/C(=O)O)C(C)(C)CCC1 [ATRA, all-trans retinoic acid]
- decrease of relative β-Gal activity (2 μM, 24 hours after treatment): ~42%
- decrease of relative β-Gal activity (2 μM, 48 hours after treatment): 33%
- decrease of relative β-Gal activity (5 μM, 24 hours after treatment): ~42%
- decrease of relative β-Gal activity (5 μM, 48 hours after treatment): ~31%

Molecule: O=c1cc(N2CCOCC2)oc2c(-c3ccccc3)cccc12 [LY 294002]
- decrease in β-Gal activity (24 hours after treatment): ~19%
- decrease in β-Gal activity (48 hours after treatment): about 15%

Molecule: C[S+]([O-])c1ccc(-c2nc(-c3ccncc3)c(-c3ccc(F)cc3)[nH]2)cc1 (centres unmarked) [SB 203580]
- decrease in β-Gal activity (24 hours after treatment): not as significant
- decrease in β-Gal activity (48 hours after treatment): no significant effects

Molecule: Oc1c2ccccc2c2c3c(cccc13)N=N2 [SP 600125]
- decrease in β-Gal activity (24 hours after treatment): about 25%
- decrease in β-Gal activity (48 hours after treatment): about 10%

Molecule: N#CC(=C(/N)Sc1ccccc1N)/C(C#N)=C(\N)Sc1ccccc1N [U0126]
- decrease in β-Gal activity (24 hours after treatment): approximately 40%
- decrease in β-Gal activity (48 hours after treatment): about 15%

Molecule: CC1=C(/C=C/C(C)=C/C=C/C(C)=C/CO)C(C)(C)CCC1 [retinol]
- decrease of relative β-Gal activity (2 μM, 24 hours after treatment): ~33%
- decrease of relative β-Gal activity (2 μM, 48 hours after treatment): 49%
- decrease of relative β-Gal activity (5 μM, 24 hours after treatment): ~38%
- decrease of relative β-Gal activity (5 μM, 48 hours after treatment): about 48%

Molecule: TGF-β: recombinant TGF-β1 from R&D, pro-fibrogenic cytokine
- induction of GFAP-lacZ transgene expression (β-Gal activity) by exogenous cytokines: None of the treatments specifically induced transgene expression; also recorded: No significant change in enzymatic activity

Molecule: TNF-α
- induction of GFAP-lacZ transgene expression (β-Gal activity) by exogenous cytokines: None of the treatments specifically induced transgene expression; also recorded: No significant change in enzymatic activity

B1: PDGF-BB: recombinant platelet derived growth factor-BB from R&D (protein, UniProt P01127 82-190, looked up)
Platelet-derived growth …: SLGSLTIAEPAMIAECKTRTEVFEISRRLIDRTNANFLVWPPCVEVQRCSGCCNNRNVQCRPTQVQLRPVQVRKIEIVRKKPIFKKATVTLEDHLACKCETVAAARPVT
- induction of GFAP-lacZ transgene expression (β-Gal activity) by exogenous cytokines: None of the treatments specifically induced transgene expression; also recorded: No significant change in enzymatic activity
